{"source": "patent US10111435B2", "about": "“Herbicidal compositions containing N-(1,3,4-oxadiazol-2-yl)-aryl carboxylic acid amides” (BAYER CROPSCIENCE AKTIENGESELLSCHAFT, priority 2013, dated 2018)", "type_in_all_cases": "in vivo", "key": {"[1]": {"tested_on": "Matricaria inodora (MATIN)", "experiment": "greenhouse post-emergence herbicidal efficacy against MATIN", "conditions": "14 days after application", "method_in_brief": "(§1)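 Read-out is visual percent herbicidal effect relative to untreated plants, taken 14 and 21 days after treatment. Pot-grown plants in sandy loam received mixtures or solo active ingredients post-emergence at a spray volume of 300 L/ha under optimum greenhouse conditions.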"}, "Phalaris minor (PHAMI)": {"tested_on": "Phalaris minor (PHAMI)", "experiment": "greenhouse post-emergence herbicidal efficacy against PHAMI", "method_in_brief": "as §1"}, "Solanum nigrum (SOLNI)": {"tested_on": "Solanum nigrum (SOLNI)", "experiment": "greenhouse post-emergence herbicidal efficacy against SOLNI", "method_in_brief": "(§2)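 Visual ratings (0% no effect, 100% complete kill) at 14 and 21 days after a post-emergence spray of 300 L/ha onto pot-grown weeds under greenhouse conditions. Mixtures and single active ingredients both tested. Differences from Colby-expected values, E^C=A+B−A×B/100, classify interactions as synergistic, additive or antagonistic.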"}, "[2]": {"tested_on": "Lolium multiflorum (LOLMU)", "experiment": "greenhouse post-emergence herbicidal efficacy against LOLMU", "conditions": "21 days after application", "method_in_brief": "as §1"}, "Avena fatua (AVEFA)": {"tested_on": "Avena fatua (AVEFA)", "experiment": "greenhouse post-emergence herbicidal efficacy against AVEFA", "method_in_brief": "as §1"}, "Kochia scoparia (KCHSC)": {"tested_on": "Kochia scoparia (KCHSC)", "experiment": "greenhouse post-emergence herbicidal efficacy against KCHSC", "method_in_brief": "as §2"}, "[3]": {"tested_on": "Chenopodium album (CHEAL)", "experiment": "greenhouse post-emergence herbicidal efficacy against CHEAL", "method_in_brief": "as §2"}, "Galium aparine (GALAP)": {"tested_on": "Galium aparine (GALAP)", "experiment": "greenhouse post-emergence herbicidal efficacy against GALAP", "conditions": "for Efficacy: 14 days after application", "method_in_brief": "as §1"}, "[4]": {"tested_on": "Echinochloa crus-galli (ECHCG)", "experiment": "greenhouse post-emergence herbicidal efficacy against ECHCG", "method_in_brief": "as §2"}, "Poa annua (POAAN)": {"tested_on": "Poa annua (POAAN)", "experiment": "greenhouse post-emergence herbicidal efficacy against POAAN", "method_in_brief": "as §1"}, "Bromus sterilis (BROST)": {"tested_on": "Bromus sterilis (BROST)", "experiment": "greenhouse post-emergence herbicidal efficacy against BROST", "conditions": "21 days after application", "method_in_brief": "as §1"}, "[5]": {"tested_on": "Polygonum convolvulus (POLCO)", "experiment": "greenhouse post-emergence herbicidal efficacy against POLCO", "conditions": "21 days after application", "method_in_brief": "as §1"}, "[6]": {"tested_on": "Amaranthus retroflexus (AMARE)", "experiment": "greenhouse post-emergence herbicidal efficacy against AMARE", "conditions": "0.4 g of a.i./ha", "method_in_brief": "as §2"}, "Setaria viridis (SETVI)": {"tested_on": "Setaria viridis (SETVI)", "experiment": "greenhouse post-emergence herbicidal efficacy against SETVI", "method_in_brief": "as §2"}, "DIGSA": {"tested_on": "DIGSA", "experiment": "greenhouse post-emergence herbicidal efficacy against DIGSA", "conditions": "14 days after application, 0.4 g of a.i./ha", "method_in_brief": "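Pot-grown plants in sandy loam sprayed post-emergence at 300 L/ha in the greenhouse, with compositions or single active ingredients. Damage scored visually against untreated plants 14 and 21 days after application (0% none, 100% complete kill); combination interactions evaluated by Colby's expected-value formula.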"}, "Eleusine indica (ELEIN)": {"tested_on": "Eleusine indica (ELEIN)", "experiment": "greenhouse post-emergence herbicidal efficacy against ELEIN", "method_in_brief": "as §2"}, "[7]": {"conditions": "g of a.i./ha: A1-13 2.5, indaziflam 10"}, "[8]": {"conditions": "g of a.i./ha: A1-13 10, indaziflam 10"}, "[9]": {"conditions": "14 days after application, 2.5 g of a.i./ha"}, "[10]": {"conditions": "14 days after application, 10 g of a.i./ha"}, "[11]": {"conditions": "21 days after application, g of a.i./ha: A1-13 2.5, indaziflam 40"}, "[12]": {"conditions": "21 days after application, g of a.i./ha: A1-13 2.5, mesosulfuron-methyl 10"}, "[13]": {"conditions": "21 days after application, g of a.i./ha: A1-13 10, indaziflam 40"}, "[14]": {"conditions": "21 days after application, g of a.i./ha: A1-13 10, mesosulfuron-methyl 10"}, "[15]": {"conditions": "14 days after application, 0.1 g of a.i./ha"}, "[16]": {"conditions": "14 days after application, 0.4 g of a.i./ha"}, "[17]": {"conditions": "21 days after application, 0.4 g of a.i./ha"}, "[18]": {"conditions": "g of a.i./ha: A1-13 10, mesosulfuron-methyl 10"}, "[19]": {"conditions": "21 days after application; 0.1 g of a.i./ha"}, "[20]": {"conditions": "21 days after application; 0.4 g of a.i./ha"}, "[21]": {"conditions": "21 days after application, 0.1 g of a.i./ha"}, "[22]": {"conditions": "21 days after application, dosage 10 g of a.i./ha"}, "[23]": {"conditions": "g of a.i./ha: A1-13 2.5, mesosulfuron-methyl 10"}}}
{"compound": "Cc1nnc(NC(=O)c2ccc(C(F)(F)F)c(S(C)(=O)=O)c2C)o1", "note": "[A1-13]", "values": [{"measurement": "Efficacy", "setting": "[1]; 2.5 g of a.i./ha", "value": 30, "unit": "%"}, {"measurement": "Efficacy", "setting": "[1]; 10 g of a.i./ha", "value": 40, "unit": "%"}, {"measurement": "Efficacy", "setting": "[1]; [7]", "value": 30, "unit": "%"}, {"measurement": "Efficacy", "setting": "[1]; [8]", "value": 40, "unit": "%"}, {"measurement": "Efficacy", "setting": "Phalaris minor (PHAMI); [9]", "value": 30, "unit": "%"}, {"measurement": "Efficacy", "setting": "Phalaris minor (PHAMI); [10]", "value": 30, "unit": "%"}, {"measurement": "Efficacy", "setting": "Phalaris minor (PHAMI); 14 days after application, g of a.i./ha: A1-13 2.5, indaziflam 40", "value": 30, "unit": "%"}, {"measurement": "Efficacy", "setting": "Phalaris minor (PHAMI); 14 days after application, g of a.i./ha: A1-13 10, indaziflam 40", "value": 30, "unit": "%"}, {"measurement": "Efficacy", "setting": "Phalaris minor (PHAMI); [11]", "value": 15, "unit": "%"}, {"measurement": "Efficacy", "setting": "Phalaris minor (PHAMI); 21 days after application, g of a.i./ha: A1-13 2.5, mesosulfuron-methyl 2.5", "value": 15, "unit": "%"}, {"measurement": "Efficacy", "setting": "Phalaris minor (PHAMI); [12]", "value": 15, "unit": "%"}, {"measurement": "Efficacy", "setting": "Phalaris minor (PHAMI); [13]", "value": 20, "unit": "%"}, {"measurement": "Efficacy", "setting": "Phalaris minor (PHAMI); [14]", "value": 20, "unit": "%"}, {"measurement": "Efficacy", "setting": "Solanum nigrum (SOLNI); [15]", "value": 10, "unit": "%"}, {"measurement": "Efficacy", "setting": "Solanum nigrum (SOLNI); [16]", "value": 20, "unit": "%"}, {"measurement": "Efficacy", "setting": "Solanum nigrum (SOLNI); [17]", "value": 10, "unit": "%"}, {"measurement": "Efficacy", "setting": "[2]; [8]", "value": 5, "unit": "%"}, {"measurement": "Efficacy", "setting": "[2]; [18]", "value": 5, "unit": "%"}, {"measurement": "Efficacy", "setting": "Avena fatua (AVEFA); [10]", "value": 35, "unit": "%"}, {"measurement": "Efficacy", "setting": "Avena fatua (AVEFA); [11]", "value": 0, "unit": "%"}, {"measurement": "Efficacy", "setting": "Avena fatua (AVEFA); [12]", "value": 0, "unit": "%"}, {"measurement": "Efficacy", "setting": "Avena fatua (AVEFA); [13]", "value": 3, "unit": "%"}, {"measurement": "Efficacy", "setting": "Avena fatua (AVEFA); [14]", "value": 3, "unit": "%"}, {"measurement": "Efficacy", "setting": "Kochia scoparia (KCHSC); [15]", "value": 0, "unit": "%"}, {"measurement": "Efficacy", "setting": "Kochia scoparia (KCHSC); [16]", "value": 0, "unit": "%"}, {"measurement": "Efficacy", "setting": "Kochia scoparia (KCHSC); [17]", "value": 0, "unit": "%"}, {"measurement": "Efficacy", "setting": "Kochia scoparia (KCHSC); [19]", "value": 0, "unit": "%"}, {"measurement": "Efficacy", "setting": "Kochia scoparia (KCHSC); [20]", "value": 0, "unit": "%"}, {"measurement": "Efficacy", "setting": "[3]; [15]", "value": 0, "unit": "%"}, {"measurement": "Efficacy", "setting": "[3]; [16]", "value": 10, "unit": "%"}, {"measurement": "Efficacy", "setting": "[3]; [21]", "value": 0, "unit": "%"}, {"measurement": "Efficacy", "setting": "Galium aparine (GALAP); 10 g of a.i./ha", "value": 50, "unit": "%"}, {"measurement": "Efficacy", "setting": "Galium aparine (GALAP); [7]", "value": 40, "unit": "%"}, {"measurement": "Efficacy", "setting": "Galium aparine (GALAP); g of a.i./ha: A1-13 10, indaziflam 40", "value": 50, "unit": "%"}, {"measurement": "Efficacy against GALAP", "setting": "Galium aparine (GALAP); [22]", "value": 60, "unit": "%"}, {"measurement": "Efficacy", "setting": "[4]; [15]", "value": 0, "unit": "%"}, {"measurement": "Efficacy", "setting": "[4]; [16]", "value": 0, "unit": "%"}, {"measurement": "Efficacy", "setting": "[4]; [21]", "value": 0, "unit": "%"}, {"measurement": "Efficacy", "setting": "[4]; [17]", "value": 0, "unit": "%"}, {"measurement": "Efficacy", "setting": "[4]; [19]", "value": 0, "unit": "%"}, {"measurement": "Efficacy", "setting": "[4]; [20]", "value": 0, "unit": "%"}, {"measurement": "Efficacy", "setting": "Poa annua (POAAN); [9]", "value": 20, "unit": "%"}, {"measurement": "Efficacy", "setting": "Poa annua (POAAN); [10]", "value": 40, "unit": "%"}, {"measurement": "Efficacy against POAAN", "setting": "Poa annua (POAAN); [22]", "value": 20, "unit": "%"}, {"measurement": "Efficacy", "setting": "Poa annua (POAAN); [12]", "value": 10, "unit": "%"}, {"measurement": "Efficacy", "setting": "Bromus sterilis (BROST); g of a.i./ha: A1-13 2.5, mesosulfuron-methyl 2.5", "value": 0, "unit": "%"}, {"measurement": "Efficacy", "setting": "Bromus sterilis (BROST); [23]", "value": 0, "unit": "%"}, {"measurement": "Efficacy", "setting": "Bromus sterilis (BROST); [8]", "value": 5, "unit": "%"}, {"measurement": "Efficacy", "setting": "Bromus sterilis (BROST); [18]", "value": 5, "unit": "%"}, {"measurement": "Efficacy", "setting": "[5]; [23]", "value": 0, "unit": "%"}, {"measurement": "Efficacy", "setting": "[5]; [18]", "value": 0, "unit": "%"}, {"measurement": "Efficacy", "setting": "[6]; 14 days after application", "value": 0, "unit": "%"}, {"measurement": "Efficacy", "setting": "[6]; 21 days after application", "value": 10, "unit": "%"}, {"measurement": "Efficacy", "setting": "Setaria viridis (SETVI); [15]", "value": 0, "unit": "%"}, {"measurement": "Efficacy", "setting": "Setaria viridis (SETVI); [16]", "value": 10, "unit": "%"}, {"measurement": "Efficacy", "setting": "Setaria viridis (SETVI); [21]", "value": 0, "unit": "%"}, {"measurement": "Efficacy", "setting": "Setaria viridis (SETVI); [17]", "value": 10, "unit": "%"}, {"measurement": "Efficacy", "setting": "Setaria viridis (SETVI); [19]", "value": 0, "unit": "%"}, {"measurement": "Efficacy", "setting": "Setaria viridis (SETVI); [20]", "value": 10, "unit": "%"}, {"measurement": "Efficacy", "setting": "DIGSA", "value": 0, "unit": "%"}, {"measurement": "Efficacy", "setting": "Eleusine indica (ELEIN); [16]", "value": 20, "unit": "%"}, {"measurement": "Efficacy", "setting": "Eleusine indica (ELEIN); [21]", "value": 0, "unit": "%"}, {"measurement": "Efficacy", "setting": "Eleusine indica (ELEIN); [17]", "value": 10, "unit": "%"}, {"measurement": "Efficacy", "setting": "Eleusine indica (ELEIN); [19]", "value": 0, "unit": "%"}, {"measurement": "Efficacy", "setting": "Eleusine indica (ELEIN); [20]", "value": 10, "unit": "%"}]}
